The source of these data is PMC12529149, “Chemical and Antiplasmodial Investigations on Carapa-Derived Gedunin Derivatives and Semisynthetic 6- and 7‑Substituted Gedunin Analogues from the Brazilian Amazon” (ACS Omega, 2025).

Values joined by “and” are separate entries in the source; they are usually repeats but may differ in a detail not shown here. Identical values can stand only once. Like-named read-outs stand apart in the source and are kept apart here. A value given as a limit tells only on which side of the number the result lay.

The subject of one data set is Plasmodium berghei. The settings on record: cited from earlier work.
Data set [1] deals with P. falciparum K1 strain vs MRC-5 human fibroblasts. Kind of data set: Selectivity index, IC50 (human fibroblasts) ÷ IC50 (P. falciparum). The format is cell-based, Plasmodium falciparum. From the text: Calculation of the selectivity index (SI) using the following formula afforded the relative toxicity of each sample to human fibroblasts and to P. falciparum blood stages: SI = IC50 (human fibroblasts) ÷ IC50 (P. falciparum).

Data set [2] has as its system K1 strain of Plasmodium falciparum. Kind of data set: In vitro susceptibility assay (microtest), P. falciparum K1 growth inhibition. The format is cell-based. As for the experimental part:
In vitro culture of the K1 strain of P. falciparum (MRA-159, MR4, ATCC, Manassas, Virginia, USA) proceeded following an established method with modifications. Briefly, this method involved the growth of parasites in human type A+ red blood cells and RPMI 1640 medium supplemented with 10% type A+ human plasma at 37 °C under an atmosphere of 5% O2, 5% CO2, and 90% N2.
As initial condition for the susceptibility assay, cultures were synchronized by treatment with 5% D-sorbitol, which provided young trophozoites (ring stages). Performance of the microtest followed a previously described procedure with modifications. Compounds were dissolved in DMSO with the aid of an ultrasound bath to provided stock solutions. […] These diluted samples were evaluated in duplicate in a 96-well test plate. A suspension of parasitized red blood cells (pRBCs) at 2% hematocrit and 1% parasitemia was added to each well. Microplate incubation proceeded for 48 h at 37 °C under the same atmosphere used for parasite culture in two independent experiments conducted on different days. Control wells contained chloroquine (0.003–2.5 μg/mL) and quinine (0.003–2.5 μg/mL). Six (6) control (blank) wells were prepared with pRBCs suspension. Six cosolvent control wells were prepared with 1% DMSO and pRBCs suspension. An average of these 12 controls defined drug-free (untreated) growth. After the incubation period, thin blood smears of the contents of each well were prepared on microscope slides. Optical microscopy was used to analyze the blood smears and establish the parasitemia of each well. Interpolation of the nonlinear curve using GraphPad Prism permitted the calculation of estimates of the sample concentrations able to inhibit 50% of parasite growth (IC50) compared to drug-free controls.

The next data set relates to P. falciparum Dd2 strain. The settings on record: ref recent study on C. guianensis (number not shown); cited from earlier work.
The test system of the next data set is P. falciparum W2 strain. The arrangement: method as in literature (numbers not shown). The following applies: ref literature (numbers not shown), listed as gedunin; cited from earlier work.
Data set [3] has as its system MRC-5 human fibroblasts. Kind of data set: Cytotoxicity/cell viability assay (Alamar blue). The class given is cell-based. The settings on record: read-out: fibroblasts IC50. The procedure:
Medical Research Council cell strain 5 (MRC-5) human fetal fibroblasts were cultivated in Dulbecco′s modified Eagle’s medium (DMEM) supplemented with 10% bovine fetal serum and 1% antibiotic at 37 °C under an atmosphere of 5% CO2. Cell viability assessment relied on the Alamar blue method. […] Doxorubicin at concentrations of 0.312, 0.625, 1.25, 2.50, 5.00, 10.0, and 20.0 μM was used as a positive control for cell death. The negative control wells received DMSO (sample diluent) at 0.1%. In preparation for the assay, this method involved plating 0.5 × 10^4 cells/well on 96 well test plates and incubating for 24 h under the same conditions used for cell culture. This initial 24 h period was necessary for cell adhesion. The assay consisted of triplicate addition of diluted samples and controls to wells followed by 48 h of incubation. For quantification of viable cells, 10 μL of 0.4% Alamar blue (Sigma-Aldrich)–which works out to an in-well concentration of 0.02%–were added to each well 3 h before the end of the treatment. Alamar blue was allowed to react for 3 h followed by quantification of the optical density (OD) of each well at an excitation wavelength of 465 nm and emission wavelength of 540 nm using an ELISA plate reader (DTX-800, Beckman Coulter). Comparison of individual sample viability OD to that of controls (blanks) afforded the cell viability. Interpolation of the nonlinear curve using GraphPad Prism software permitted the calculation of estimates of the sample IC50 values compared to drug-free controls.

In a further data set the test system is P. falciparum D10 strain. The arrangement: method as in literature (number not shown). The settings on record: ref literature (number not shown); cited from earlier work.
In data set [4] the test system is human mammary epithelial cells (HME). The arrangement: method as in literature (number not shown). The following applies: ref literature (number not shown); cited from earlier work.
Data set [5] has as its system mouse mammary carcinoma (FM3A) cell cultures. The arrangement: method as in literature (number not shown). The settings on record: ref literature (number not shown); cited from earlier work.
Data set [6] concerns P. falciparum FCR3 strain. The arrangement: method as in literature (numbers not shown). The settings on record: ref literature (numbers not shown); cited from earlier work.
In the next data set the test system is P. falciparum K1 strain. The arrangement: method as in earlier work. The following applies: ref previous reports incl. authors' earlier work (numbers not shown); cited from earlier work.
For the next data set, the system named is Hs578Bst cells. The arrangement: method as in literature (number not shown). The settings on record: immortalized, adult-derived normal cells; ref literature (number not shown); cited from earlier work.
Data set [7] has as its system variety of P. falciparum strains. The settings on record: read-out: IC50, in vitro growth, cited from earlier work.
Details of data set [8]: method as in literature (number not shown). The settings on record: low pH similar to mouse and human stomachs; ref literature (number not shown); cited from earlier work.
The next data set relates to P. falciparum. The arrangement: method as in literature (number not shown). The following applies: strain not stated; ref literature (number not shown); read-out: IC50, P. falciparum in vitro; cited from earlier work.
The test system of data set [9] is MRC-5 human fibroblasts. The arrangement: method as in authors' previous evaluation (number not shown). The settings on record: ref authors' previous evaluation (number not shown); cited from earlier work.

In the case of `CC(=O)O[C@@H]1C[C@H]2C(C)(C)C(=O)C=C[C@]2(C)[C@H]2CC[C@@]3(C)[C@H](c4ccoc4)OC(=O)[C@H]4O[C@]43[C@@]21C` (single isomer, unassigned) [compound 4, gedunin], the “suppression of parasite growth vs untreated controls” value with Plasmodium berghei (oral or subcutaneous 50–90 mg/kg/day, P. berghei-infected mice, ref literature (numbers not shown)) is “failed to significantly suppress parasite growth”. For the same compound, the “selectivity index (SI)” value in data set [1] is on record as over 37. Besides, the IC50 was 1.4 µg/mL and 2.8 µM in [2] (Plasmodium falciparum, K1, 48 h, K1 strain, 48 h, CI95 in brackets, read-out: P. falciparum IC50 (CI95)); 2800 ± 200 nM with P. falciparum Dd2 strain; 1310 ± 420 nM with P. falciparum W2 strain; over 100000 nM in the data set on MRC-5 human fibroblasts [3] (MRC5, MRC-5, tested at 50 μg/mL for 48 h); 1660 ± 370 nM with P. falciparum D10 strain; 2500 nM in [6]. For the same compound, the IC50 in the data set on P. falciparum K1 strain is 1500 nM; in data set [7] (chloroquine-resistant (Dd2, K1, W2) and chloroquine-sensitive (3D7, D6, D10, FCR3, FCR3TC) strains, ref literature (numbers not shown)), 20 to 3100 nM. Also, in data set [4], the “toxicity to HME cells” value is given as “no appreciable toxicity”. In [5], the “toxicity to FM3A cells” value is “toxic”. Moreover, the “toxicity to Hs578Bst cells” value with Hs578Bst cells was “no appreciable toxicity”.
Consider `CC1(C)C(=O)C=C[C@]2(C)[C@H]3CC[C@@]4(C)[C@H](c5ccoc5)OC(=O)[C@H]5O[C@]54[C@]3(C)[C@H](O)C[C@@H]12` [compound 2, 7-deacetylgedunin], for which the “selectivity index (SI)” value in [1] is reported as over 8.5. In addition, the IC50 is 5.9 µg/mL in [2] (Plasmodium falciparum, K1, 48 h, read-out: P. falciparum IC50 (CI95), K1 strain, 48 h, CI95 in brackets); 13000 nM in data set [2] (read-out: P. falciparum IC50 (CI95), K1 strain, 48 h, CI95 in brackets); over 110000 nM in the data set with MRC-5 human fibroblasts [3] (MRC5, 48 h); 3100 nM with P. falciparum K1 strain; 1300 to 5900 nM in [7] (variety of strains (3D7, D6, D10, W2, INDO), ref several previous reports (numbers not shown)). The “stability at low pH” value in data set [8] is given as “react at low pH”.
As for “7-deacetyl-7α-methoxygedunin [reference compound]”, in the data set with Plasmodium berghei (oral, 50 mg/kg/day together with dillapiole 25 mg/kg/day (binary treatment), mice, ref literature (numbers not shown)), the “suppression of P. berghei vs untreated controls” value was 68–81%. Moreover, in the data set on P. falciparum, the IC50 was 1600 to 1700 nM. The “stability at low pH” value in data set [8] is given as “good stability at low pH”.
Regarding `CC(=O)O[C@H]1[C@@H](OC(C)=O)[C@]2(C)[C@H](CC[C@@]3(C)[C@H](c4ccoc4)OC(=O)[C@H]4O[C@@]423)[C@@]2(C)C=CC(=O)C(C)(C)[C@H]12` [compound 12, 6α-acetoxygedunin], the suppression of parasitemia in the data set with Plasmodium berghei (oral 50–100 mg/kg/day, P. berghei-infected mice, ref authors' earlier work (number not shown)) is on record as 40–66%. In addition, the IC50 was 2100 ± 200 nM in the data set with P. falciparum Dd2 strain, over 110000 nM in the data set on MRC-5 human fibroblasts [9] and 7000 nM in the data set with P. falciparum K1 strain.
